From EP2966448B1, “METHOD FOR THE PREDICTION OR PROGNOSIS OF THE RESPONSE OF A HUMAN SUBJECT SUFFERING FROM CANCER TO TREATMENT WITH AN ANTAGONIST OF THE NK1 RECEPTOR” (priority 2013, dated 2014)
Read-outs that look alike come from different tables or passages of the source.

What was measured:
[1] = tested on: Lung carcinoma (small cell type); experiment: Inhibition of primary tumor cell cultures (48 hours) vs NK1 receptor immunostaining (Example 1); type: cell-based; settings: Homo sapiens, 1 micromolar, read-out: Percentage of inhibition of cell cultures
Description: (§1) Cell cultures. To obtain tumor cells from human primary tumors we used the method described in De Bari et al. (De Bari et al. 2001). Briefly, small pieces of the tumors were digested into a hyaluronidase solution (Sigma-Aldrich, USA) at a concentration of 1 mg/ml during 15 minutes at 37°C, and then they were treated with 6 mg/ml of collagenase type IV (Invitrogen) during 2 hours at 37°C. Consecutively, cells were washed, and resuspended in the DMEM culture medium with high concentration of glucose (Dulbecco's Modified Eagle's Medium, Invitrogen) supplemented with 1% of antibiotics-antimycotics (Invitrogen) and with 1% of sodium pyruvate (Invitrogen), and the cells were seeded in culture slides at a concentration of 10.000 cells per square centimeter. When cells reached confluence, the adherent cells were separated using sterile trypsin at 0,5% (Invitrogen) and they were used among passages 3 and 9. For the assays shown next, tumor cells were seeded on slides at a concentration of 25.000 cells per well. A total of 6 wells containing the tumor cells were used as survival control. […] All the cultures were kept during 48 hours and later on recollected for their analysis.
(§2) Immunohistochemistry techniques. The presence of NK1 receptors was also analyzed using immunohistochemistry techniques. Briefly, a sample of each of the cultures of the cell lines used in the present invention, was centrifuged (5 minutes at 1.500 rpm) and the pellet obtained was dehydrated using increasing concentrations of ethanol and, finally, xylol. Then, said dehydrated samples were embedded in paraffin, creating a block of cells. Such paraffin blocks were cut with a microtome at 5 microns thickness, and were placed on microscope slides adequate to perform immunohistochemistry techniques. Consecutively, they were de-paraffinized by immersing them in xylol, to be finally hydrated using a solution containing decreasing concentrations of ethanol, and finally submerged them into water. […] After this, the samples were left to cool down at room temperature for 10 minutes. The endogenous peroxidase activity was blocked with 3% peroxide of hydrogen for 30 minutes at room temperature. After washing the samples with 0.05 M of Tris buffer, they were incubated with 10% non-immune pork serum at for 30 minutes at room temperature. To analyze the expression of NK1 receptors, the cellular samples were incubated in the presence of anti-NK1 antibodies (S8305, Sigma-Aldrich) diluted 1:1000, overnight at 4°C. Afterwards, the samples were washed in Tris buffer 0.05 M at room temperature. The next step was the addition of Envision System-HRP (Dako) reagents for 30 minutes at room temperature. Then, the samples were washed again in Tris buffer 0.05 M and the immunoreactivity was visualized through light microscopy with a chromogenic solution containing 3,3'-Diaminobenzidine (DAB+; Dako, USA). To differentiate the cell nuclei, they were slightly stained with hematoxylin. As negative control, it was used samples not incubated with the primary antibody anti-NK1, which was replaced by non-immune serum. All the samples were evaluated.
(§3) To value the immunostaining in each of the cases six cuts were performed to be analyzed by the immunohistochemistry technique. In each of the six cuts, it was counted cells in 20 fields (magnification 400x) using an Olympus microscope (model CX31). In each field it was counted the total number of cells and the number of cells presenting immunostaining, calculating afterwards the percentage of cells which presented immunostaining.

[2] = tested on: Carcinoma of the uterine cervix; experiment: as above; type: cell-based; settings: Homo sapiens, 1 micromolar, read-out: Percentage of inhibition of cell cultures
Description: as §1, §2, §3

[3] = tested on: Pancreatic carcinoma (Adenocarcinoma); experiment: Inhibition of primary tumor cell cultures vs Kras mutation (Example 2); type: cell-based, human; settings: Homo sapiens, 100 micromolar, read-out: Percentage of inhibition of cell cultures
Description: (§4) Cell cultures. […] Briefly, small pieces of the tumors were digested into a hyaluronidase solution (Sigma-Aldrich, USA) at a concentration of 1 mg/ml during 15 minutes at 37°C, and then they were treated with 6 mg/ml of collagenase type IV (Invitrogen) during 2 hours at 37°C. Consecutively, cells were washed, and resuspended in the DMEM culture medium with high concentration of glucose (Dulbecco's Modified Eagle's Medium, Invitrogen) supplemented with 1% of antibiotics-antimycotics (Invitrogen) and with 1% of sodium pyruvate (Invitrogen), and the cells were seeded in culture slides at a concentration of 10.000 cells per square centimeter. When cells reached confluence, the adherent cells were separated using sterile trypsin at 0,5% (Invitrogen) and they were used among passages 3 and 9. For the assays shown next, tumor cells were seeded on slides at a concentration of 25.000 cells per well. A total of 6 wells containing the tumor cells were used as survival control. […] All the cultures were kept during 48 hours and later on recollected for their analysis.
(§5) In each case the presence or not of mutations in K-ras gene was determined.
(§6) To determine the existence of mutations in the K-ras gene DNA from cancer tumor cells was extracted from samples obtained from the different cancer tumor cells, using DNA extraction kits from Takara (Madison, WI, US) or Ambion (Huntingdon, Cambridgeshire, United Kingdom), following the manufacturer's instructions, and as it has been previously published (Di Fiore F, et al. 2007). Consecutively it was analyzed by sequencing the exon 2 of the KRAS gene, , by means of PCR amplification from previously extracted cancer tumor DNA, using the following sense primer (SEQ ID NO. 15): 5'-[sequence]-3' and anti-sense primer (SEQ ID NO. 16): 5'-[sequence]-3'. After the purification using the Qiagen extraction kit, the PCR products were sequenced using the Big Dye Terminator Kit V3.1 (Applied Biosystems, Foster City, CA, U.S.) and an ABI Prism 377 or 3100 DNA sequencer (Applied Biosystems). The presence of a heterozygous mutation in the KRAS gene in cancer tumor cells of the cultures was defined as the appearance of a mutant peak of a height of at least a third of the wild type. All the sequence analysis were executed at least twice in two independent PCR.
(§7) The antibody against NK1 receptor (Table 16) was used at 1/50 concentration. The percentages of inhibition are expressed in percentage of variation in relation to control ± standard deviation.

[4] = tested on: Thyroid carcinoma (papillary carcinoma); experiment: as above; type: cell-based, human; settings: Homo sapiens, 100 micromolar, read-out: Percentage of inhibition of cell cultures
Description: (§8) To obtain tumor cells from human primary tumors we used the method described in De Bari et al. (De Bari et al. 2001). Briefly, small pieces of the tumors were digested into a hyaluronidase solution (Sigma-Aldrich, USA) at a concentration of 1 mg/ml during 15 minutes at 37°C, and then they were treated with 6 mg/ml of collagenase type IV (Invitrogen) during 2 hours at 37°C. Consecutively, cells were washed, and resuspended in the DMEM culture medium with high concentration of glucose (Dulbecco's Modified Eagle's Medium, Invitrogen) supplemented with 1% of antibiotics-antimycotics (Invitrogen) and with 1% of sodium pyruvate (Invitrogen), and the cells were seeded in culture slides at a concentration of 10.000 cells per square centimeter. When cells reached confluence, the adherent cells were separated using sterile trypsin at 0,5% (Invitrogen) and they were used among passages 3 and 9. For the assays shown next, tumor cells were seeded on slides at a concentration of 25.000 cells per well. A total of 6 wells containing the tumor cells were used as survival control. […] All the cultures were kept during 48 hours and later on recollected for their analysis.
as §5, §6, §7

[5] = tested on: Prostate carcinoma; experiment: cells; settings: Homo sapiens, 1 micromolar
Description: as §1, §2, §3

[6] = tested on: Malignant Fibrous Histiocytoma; experiment: Inhibition of primary tumor cell cultures (48 hours) vs NK1 receptor immunostaining (Example 1); type: cell-based; settings: Homo sapiens, 1 micromolar, read-out: Percentage of inhibition of cell cultures
Description: as §1, §2, §3

[7] = tested on: Fibrosarcoma; experiment: as above; type: cell-based; settings: Homo sapiens, 1 micromolar, read-out: Percentage of inhibition of cell cultures
Description: as §1, §2, §3

[8] = tested on: Gastric carcinoma (Adenocarcinoma); experiment: Inhibition of primary tumor cell cultures vs Kras mutation (Example 2); type: cell-based, human; settings: Homo sapiens, 100 micromolar, read-out: Percentage of inhibition of cell cultures
Description: as §4, §5, §6, §7

[9] = tested on: Thyroid carcinoma (folliculary type); experiment: Inhibition of primary tumor cell cultures (48 hours) vs NK1 receptor immunostaining (Example 1); type: cell-based; settings: Homo sapiens, 1 micromolar, read-out: Percentage of inhibition of cell cultures
Description: as §1, §2, §3

[10] = tested on: Lung carcinoma (small cell lung carcinoma); experiment: Inhibition of primary tumor cell cultures vs Kras mutation (Example 2); type: cell-based, human; settings: Homo sapiens, 100 micromolar, read-out: Percentage of inhibition of cell cultures
Description: as §8, §5, §6, §7

[11] = tested on: Non Hodgkin Lymphoma B (diffuse B cell lymphoma); experiment: as above; type: cell-based, human; settings: Homo sapiens, B-cell, 100 micromolar, read-out: Percentage of inhibition of cell cultures
Description: as §1, §5, §6
The percentages of inhibition are expressed in percentage of variation in relation to control ± standard deviation.

[12] = tested on: Pancreatic carcinoma; experiment: Inhibition of primary tumor cell cultures (48 hours) vs NK1 receptor immunostaining (Example 1); type: cell-based; settings: Homo sapiens, 1 micromolar, read-out: Percentage of inhibition of cell cultures
Description: as §1, §2, §3

[13] = tested on: human primary tumor cells; experiment: Inhibition of primary tumor cell cultures vs low or high expression of the truncated form of NK1 receptor (Example 5; tumor type per table line); type: cell-based; settings: 100 micromolar
Description: as §1
The presence of the truncated form of NK1 receptor was determined and then cells were cultured in presence of several antagonists of the NK1 receptor.
In each case the presence of the truncated form of the NK1 receptor was determined.
To determine the presence of the truncated form of the gene of NK1 receptor PCR technique was performed (Polymerase Chain Reaction). The extraction of RNA, amplifications of PCR, cycle conditions and quantitative analysis were executed as it has been previously described. The specific primers were the following: For the full-length NK1R receptor (NM_001058.3; forward (SEQ ID NO: 17)-: 5'-[sequence]-3 ' and reverse- (SEQ ID NO:18): 5'-[sequence]-3') and for the truncated NK1receptor (NM_015727.2; forward (SEQ ID NO: 19): 5'-[sequence]-3 and reverse (SEQ ID NO;20): 5'-[sequence]-3').
Cases were distributed in two groups: • Group A -low expression of the truncated form of NK1 receptor- for those cases wherein the expression of the truncated form of NK1 receptor was less than double the expression of the full length form of such receptor. • Group B -high expression of the truncated form of NK1 receptor- for those cases wherein the expression of the truncated form of the NK1 receptor was higher than double the expression of the full length form of such receptor.
The percentages of inhibition are expressed in percentage of variation in relation to the control ± standard deviation.

[14] = NK1 receptor immunostaining Group 1 (less than 20% of the cells)
[15] = NK1 receptor immunostaining Group 2 (20-80% of the cells)
[16] = NK1 receptor immunostaining Group 3 (more than 80% of the cells)
[17] = NK1 receptor immunostaining Intensity grade 1
[18] = NK1 receptor immunostaining Intensity grade 2
[19] = NK1 receptor immunostaining Intensity grade 3
[20] = Cases with Kras non-mutated (wild type)

## CC(=O)N1CCN([C@H]2CCN(C(=O)N(C)[C@H](C)c3cc(C(F)(F)F)cc(C(F)(F)F)c3)[C@@H](c3ccc(F)cc3C)C2)CC1 [Casopitant]
[1]; [14]
  inhibition at 1 µM: 12 ± 2%
[1]; [15]
  inhibition at 1 µM: 45 ± 2%
[1]; [16]
  inhibition at 1 µM: 93 ± 4%
[1]; [17]
  inhibition at 1 µM: 33 ± 2%
[1]; [18]
  inhibition at 1 µM: 55 ± 3%
[1]; [19]
  inhibition at 1 µM: 94 ± 4%
[2]; [14]
  inhibition at 1 µM: 16 ± 3%
[2]; [15]
  inhibition at 1 µM: 47 ± 4%
[2]; [16]
  inhibition at 1 µM: 93 ± 3%
[2]; [17]
  inhibition at 1 µM: 33 ± 3%
[2]; [18]
  inhibition at 1 µM: 53 ± 3%
[2]; [19]
  inhibition at 1 µM: 92 ± 2%
[3]; Cases with Kras mutated
  inhibition at 100 µM: 27 ± 3%
[3]; [20]
  inhibition at 100 µM: 93 ± 4%
[4]; Cases with Kras mutated
  inhibition at 100 µM: 24 ± 5%
[4]; [20]
  inhibition at 100 µM: 94 ± 5%
[5]; read-out: Percentage of inhibition of cell cultures, NK1 receptor immunostaining Group 1 (less than 20% of the cells)
  inhibition at 1 µM: 16 ± 2%
[5]; read-out: Percentage of inhibition of cell cultures, NK1 receptor immunostaining Group 2 (20-80% of the cells)
  inhibition at 1 µM: 45 ± 4%
[5]; read-out: Percentage of inhibition of cell cultures, NK1 receptor immunostaining Group 3 (more than 80% of the cells)
  inhibition at 1 µM: 93 ± 4%
[5]; read-out: Percentage of inhibition of cell cultures, NK1 receptor immunostaining Intensity grade 1
  inhibition at 1 µM: 33 ± 5%
[5]; read-out: Percentage of inhibition of cell cultures, NK1 receptor immunostaining Intensity grade 2
  inhibition at 1 µM: 53 ± 3%
[5]; read-out: Percentage of inhibition of cell cultures, NK1 receptor immunostaining Intensity grade 3
  inhibition at 1 µM: 94 ± 2%
[6]; [14]
  inhibition at 1 µM: 14 ± 3%
[6]; [15]
  inhibition at 1 µM: 46 ± 4%
[6]; [16]
  inhibition at 1 µM: 94 ± 5%
[6]; [17]
  inhibition at 1 µM: 32 ± 5%
[6]; [18]
  inhibition at 1 µM: 53 ± 4%
[6]; [19]
  inhibition at 1 µM: 93 ± 2%
[7]; [14]
  inhibition at 1 µM: 15 ± 2%
[7]; [15]
  inhibition at 1 µM: 47 ± 5%
[7]; [16]
  inhibition at 1 µM: 93 ± 4%
[7]; [17]
  inhibition at 1 µM: 35 ± 6%
[7]; [18]
  inhibition at 1 µM: 55 ± 3%
[7]; [19]
  inhibition at 1 µM: 92 ± 4%
[8]; Cases with Kras mutated
  inhibition at 100 µM: 25 ± 5%
[8]; [20]
  inhibition at 100 µM: 95 ± 5%
[9]; [14]
  inhibition at 1 µM: 14 ± 3%
[9]; [15]
  inhibition at 1 µM: 44 ± 3%
[9]; [16]
  inhibition at 1 µM: 94 ± 4%
[9]; [17]
  inhibition at 1 µM: 34 ± 3%
[9]; [18]
  inhibition at 1 µM: 54 ± 5%
[9]; [19]
  inhibition at 1 µM: 93 ± 2%
[10]; Cases with Kras mutated
  inhibition at 100 µM: 26 ± 4%
[10]; [20]
  inhibition at 100 µM: 94 ± 2%
[11]; Cases with Kras mutated
  inhibition at 100 µM: 26 ± 3%
[11]; [20]
  inhibition at 100 µM: 95 ± 4%
[12]; [14]
  inhibition at 1 µM: 10 ± 4%
[12]; [15]
  inhibition at 1 µM: 45 ± 2%
[12]; [16]
  inhibition at 1 µM: 92 ± 4%
[12]; [17]
  inhibition at 1 µM: 33 ± 5%
[12]; [18]
  inhibition at 1 µM: 53 ± 3%
[12]; [19]
  inhibition at 1 µM: 93 ± 1%
[13]; Glioma (astrocytoma), Cases with high expression of the truncated form of NK1 receptor (Group B)
  Percentage of inhibition of cell cultures: 95±7 percentage
[13]; Glioma (astrocytoma), Cases with low expression of the truncated form of NK1 receptor (Group A)
  Percentage of inhibition of cell cultures: 24±5 percentage
[13]; Lung carcinoma (non small cell lung carcinoma), Cases with high expression of the truncated form of NK1 receptor (Group B)
  Percentage of inhibition of cell cultures: 95±6 percentage
[13]; Lung carcinoma (non small cell lung carcinoma), Cases with low expression of the truncated form of NK1 receptor (Group A)
  Percentage of inhibition of cell cultures: 25±4 percentage
[13]; Melanoma (Nodular Melanoma), Cases with high expression of the truncated form of NK1 receptor (Group B)
  Percentage of inhibition of cell cultures: 96±6 percentage
[13]; Melanoma (Nodular Melanoma), Cases with low expression of the truncated form of NK1 receptor (Group A)
  Percentage of inhibition of cell cultures: 23±5 percentage
[13]; Non Hodgkin Lymphoma B (diffuse B cell lymphoma), Cases with high expression of the truncated form of NK1 receptor (Group B)
  Percentage of inhibition of cell cultures: 97±4 percentage
[13]; Non Hodgkin Lymphoma B (diffuse B cell lymphoma), Cases with low expression of the truncated form of NK1 receptor (Group A)
  Percentage of inhibition of cell cultures: 24±3 percentage
[13]; Non Hodgkin Lymphoma T (diffuse T cell lymphoma), Cases with high expression of the truncated form of NK1 receptor (Group B)
  Percentage of inhibition of cell cultures: 98±3 percentage
[13]; Non Hodgkin Lymphoma T (diffuse T cell lymphoma), Cases with low expression of the truncated form of NK1 receptor (Group A)
  Percentage of inhibition of cell cultures: 23±4 percentage
